Experiment: biodistribution studies in male NMRI mice
Format: in vivo, mouse
Conditions: mouse, in vivo; for % ID bladder + urine / % ID blood / % ID bone / % ID heart / % ID intestines / % ID kidneys / % ID liver / % ID lungs / % ID pancreas / % ID spleen / % ID stomach / SUV blood / SUV bone / SUV brain / SUV heart / SUV kidneys / SUV liver / SUV lungs / SUV pancreas / SUV spleen / % ID brain: iv
Experimental: The tissue distribution and kinetics of [^11C]MA2 and [^18F]MA3 were studied in male NMRI mice at 2, 10, 30, and 60 min post injection of the tracer. The results of the biodistribution studies are presented in Table 1 ([^11C]MA2) and Table 2 ([^18F]MA3) as percentage of injected dose (% ID) and standard uptake value (SUV).
The biodistribution of [^11C]MA2 and [^18F]MA3 was studied in normal male Naval Medical Research Institute (NMRI) mice. A solution of HPLC-purified [^11C]MA2 or [^18F]MA3 was diluted with saline to obtain an ethanol concentration < 10%. Mice were anesthetized with isoflurane (2% in oxygen) and injected intravenously (i.v.) with [^11C]MA2 (~ 9.25 MBq) or [^18F]MA3 (~ 0.92 MBq) via a lateral tail vein. The mice were sacrificed by decapitation at 2, and 60 min post injection (for [^11C]MA2, n = 4) and at 2, 10, 30, or 60 min post injection (for [^18F]MA3, n = 3 or 4 per time point) and dissected. Blood, organs, and other body parts were collected in tared tubes and the radioactivity in each tube was measured using an automated gamma counter. The tubes containing selected organs and blood were weighed. For calculation of total radioactivity in blood, blood mass was assumed to be 7% of the body mass (Fritzberg et al., [1982]). Quantitative data are expressed as mean ± standard deviation (SD). Means were compared using an unpaired two-tailed student t-test. Values were considered statistically significant for P ≤ 0.05.

blood % ID 2 min/60 min ratio (male, NMRI): 5.2
brain % ID 2 min/60 min ratio (male, NMRI): 9.2
% ID bladder + urine (male, NMRI, 2 min): 0.2 ± 0.2 % ID
% ID blood (male, NMRI, 2 min): 5.4 ± 0.4 % ID
% ID bone (male, NMRI, 2 min): 5.3 ± 1.2 % ID
% ID heart (male, NMRI, 2 min): 1.2 ± 0.1 % ID
% ID intestines (male, NMRI, 2 min): 9.4 ± 3.9 % ID
% ID kidneys (male, NMRI, 2 min): 9.0 ± 1.2 % ID
% ID liver (male, NMRI, 2 min): 31.4 ± 8.4 % ID
% ID lungs (male, NMRI, 2 min): 1.2 ± 0.3 % ID
% ID pancreas (male, NMRI, 2 min): 1.4 ± 0.3 % ID
% ID spleen (male, NMRI, 2 min): 0.4 ± 0.1 % ID
% ID stomach (male, NMRI, 2 min): 1.4 ± 0.2 % ID
SUV blood (male, NMRI, 2 min): 0.8 ± 0.1
SUV bone (male, NMRI, 2 min): 0.4 ± 0.1
SUV brain (male, NMRI, 2 min): 1.1 ± 0.1
SUV heart (male, NMRI, 2 min): 3.4 ± 0.3
SUV kidneys (male, NMRI, 2 min): 5.4 ± 0.4
SUV liver (male, NMRI, 2 min): 7.2 ± 2.0
SUV lungs (male, NMRI, 2 min): 2.8 ± 0.7
SUV pancreas (male, NMRI, 2 min): 3.0 ± 0.5
SUV spleen (male, NMRI, 2 min): 5.1 ± 0.6
% ID bladder + urine (male, NMRI, 10 min): 0.4 ± 0.0 % ID
% ID blood (male, NMRI, 10 min): 2.2 ± 0.3 % ID
% ID bone (male, NMRI, 10 min): 3.5 ± 0.2 % ID
% ID brain (male, NMRI, 10 min): 1.0 ± 0.1 % ID
% ID heart (male, NMRI, 10 min): 0.3 ± 0.0 % ID
% ID intestines (male, NMRI, 10 min): 30.8 ± 6.1 % ID
% ID kidneys (male, NMRI, 10 min): 1.6 ± 0.2 % ID
% ID liver (male, NMRI, 10 min): 26.1 ± 3.4 % ID
% ID lungs (male, NMRI, 10 min): 0.5 ± 0.0 % ID
% ID pancreas (male, NMRI, 10 min): 0.4 ± 0.1 % ID
% ID spleen (male, NMRI, 10 min): 0.3 ± 0.1 % ID
% ID stomach (male, NMRI, 10 min): 0.5 ± 0.0 % ID
SUV blood (male, NMRI, 10 min): 0.3 ± 0.0
SUV bone (male, NMRI, 10 min): 0.3 ± 0.0
SUV brain (male, NMRI, 10 min): 0.5 ± 0.0
SUV heart (male, NMRI, 10 min): 0.6 ± 0.0
SUV kidneys (male, NMRI, 10 min): 1.1 ± 0.1
SUV liver (male, NMRI, 10 min): 4.7 ± 0.7
SUV lungs (male, NMRI, 10 min): 0.7 ± 0.1
SUV pancreas (male, NMRI, 10 min): 0.8 ± 0.0
SUV spleen (male, NMRI, 10 min): 0.5 ± 0.0
% ID bladder + urine (male, NMRI, 30 min): 1.7 ± 0.3 % ID
% ID blood (male, NMRI, 30 min): 1.2 ± 0.1 % ID
% ID bone (male, NMRI, 30 min): 1.6 ± 0.5 % ID
% ID brain (male, NMRI, 30 min): 0.3 ± 0.1 % ID
% ID heart (male, NMRI, 30 min): 0.1 ± 0.0 % ID
% ID intestines (male, NMRI, 30 min): 56.2 ± 5.4 % ID
% ID kidneys (male, NMRI, 30 min): 1.0 ± 0.2 % ID
% ID liver (male, NMRI, 30 min): 17.3 ± 6.7 % ID
% ID lungs (male, NMRI, 30 min): 0.2 ± 0.0 % ID
% ID pancreas (male, NMRI, 30 min): 0.2 ± 0.1 % ID
% ID spleen (male, NMRI, 30 min): 0.1 ± 0.0 % ID
% ID stomach (male, NMRI, 30 min): 0.8 ± 1.0 % ID
SUV blood (male, NMRI, 30 min): 0.2 ± 0.0
SUV bone (male, NMRI, 30 min): 0.1 ± 0.0
SUV brain (male, NMRI, 30 min): 0.2 ± 0.0
SUV heart (male, NMRI, 30 min): 0.4 ± 0.1
SUV kidneys (male, NMRI, 30 min): 0.6 ± 0.1
SUV liver (male, NMRI, 30 min): 3.7 ± 1.4
SUV lungs (male, NMRI, 30 min): 0.4 ± 0.1
SUV pancreas (male, NMRI, 30 min): 0.4 ± 0.1
SUV spleen (male, NMRI, 30 min): 0.5 ± 0.3
% ID blood (male, NMRI, 60 min): 1.0 ± 0.3 % ID
% ID bone (male, NMRI, 60 min): 2.2 ± 0.3 % ID
% ID brain (male, NMRI, 60 min): 0.1 ± 0.0 % ID
% ID heart (male, NMRI, 60 min): 0.1 ± 0.0 % ID
% ID kidneys (male, NMRI, 60 min): 0.7 ± 0.3 % ID
% ID liver (male, NMRI, 60 min): 10.2 ± 5.2 % ID
% ID lungs (male, NMRI, 60 min): 0.1 ± 0.0 % ID
% ID pancreas (male, NMRI, 60 min): 0.1 ± 0.0 % ID
% ID spleen (male, NMRI, 60 min): 0.03 ± 0.01 % ID
% ID stomach (male, NMRI, 60 min): 4.4 ± 5.1 % ID
SUV blood (male, NMRI, 60 min): 0.1 ± 0.0
SUV bone (male, NMRI, 60 min): 0.2 ± 0.0
SUV brain (male, NMRI, 60 min): 0.1 ± 0.0
SUV heart (male, NMRI, 60 min): 0.3 ± 0.0
SUV kidneys (male, NMRI, 60 min): 0.5 ± 0.1
SUV lungs (male, NMRI, 60 min): 0.3 ± 0.1
SUV pancreas (male, NMRI, 60 min): 0.3 ± 0.1
SUV spleen (male, NMRI, 60 min): 0.5 ± 0.1
accumulation in the spleen: no accumulation
SMILES: Fc1ccc(-c2noc(CCCNc3cnc4ccc(OCC[18F])cc4c3)n2)c(Cl)c1 [[^18F]MA3]
